# US20190002480A1, “Silane-Containing Heterocyclic Compounds and Methods of Use Thereof for the Treatment of Viral Diseases” (Merck Sharp & Dohme Corp., priority 2015, published 2019)
# Read-outs that look alike come from different tables or passages of the source.
# Legend:
# [1] = test system: HCV replicon GT1a_Y93H; experiment: Cell-based HCV replicon assay, GT1a Y93H; settings: Hepatitis C virus, 72 h, read-out: GT1a_Y93H EC90
# Experimental: (§1) To measure cell-based anti-HCV activity of compounds of the present invention, two complimentary assays were employed using various replicons. In the first assay (“Replicon Assay A”), replicon cells were seeded at 2000 cells/well in 384-well 384-well flat bottom tissue culture treated clear bottom plate (Corning 3707) in the presence of the test compound. Various concentrations of test compound, typically in 10 serial dilutions, were added to the assay mixture, with the starting concentration ranging from 333.3 nM to […]. The final concentration of DMSO was 0.5%. Fetal bovine serum was 5%, in the assay media. Cells were harvested on day 3 by removing media and washing the cells with a suitable wash buffer. The cells are lysed with the addition of 1× Qiagen lysis buffer (Cat #1062731). The replicon RNA level was measured using real time PCR (TaqMan® EZ RT-PCR, Applied Biosystems 403028) with the following primers and probes: […]
# (§2) Cyclophilin RNA was used as endogenous control and was amplified in the same reaction as NS5B (multiplex PCR). The real-time RT-PCR reactions were run on ABI PRISM 7900HT Sequence Detection System using the following program: 50° C. for 2 minutes, 60° C. for 30 minutes, 95° C. for 5 minutes, 40 cycles of 94 C for 20 sec, 55 C for 1 minutes.
# (§3) The amount of HCV replicon RNA per cell is quantified using a linear regression curve for a known nanogram (ng) amount of HCV replicon total RNA. This is established by plotting the Cycle Threshold values (Ct) from the Neo probe and primer set versus the log (ng) for each HCV replicon total RNA standard. The amount of HCV RNA for each replicon sample is calculated by taking the sample's Ct value, minus the line intercept, divided by the slope of the line. Similarly, the amount of Cyclophilin mRNA per cell is also quantified using a linear regression curve for a known nanogram (ng) amount of HCV replicon total RNA. Again, this is established by plotting the Cycle Threshold values (Ct) from the Cyclophilin probe and primer set versus the log (ng) for each HCV replicon total RNA standard.
# (§4) In an alternate assay (“Replicon Assay B”), 1000 cells were seeded per well in a 384-well collagen coated black plate from Greiner bio-one (Cat #781946) in 5% FBS. Inhibitors of this invention were added at 24 h post-seeding, and the plates were incubated for 3 days. Cells were subsequently lysed with Qiagen lysis buffer (Cat #1062731) to extract the RNA. HCV replicon RNA level was measured by real-time PCR using the RNA-to-CT kit from Applied Biosystem (Cat #4392656) and genotype-specific primers and probes. The amplicon was located within NS5B. The sequence of the PCR primers are as follows: 5B.2F, ATGGACAGGCGCCCTGA (SEQ. ID NO. 1); 5B.2R, […] (SEQ. ID NO. 2); the probe sequence was FAM-labeled CACGCCATGCGCTGCGG (SEQ. ID NO. 3). To detect genotype 1A the primer 1A F, TGCGGAACCGGTGAGTACA and 1A R, […] were used; the probe sequence was FAM-[…].
# (§5) The real-time RT-PCR reactions were run on ABI PRISM 7900HT or Viia7 Sequence Detection System using the following program: 48° C. for 30 minutes, 95 C for 10 minutes, 40 cycles of 95 C for 15 sec, 60 C for 1 minutes. The 50% effective concentration (EC50) was the drug concentration necessary to achieve an increase in the cycle threshold (CT) of 1 over the projected baseline CT. The EC90 was the drug concentration necessary to achieve an increase in CT of 3.2 over the projected baseline CT.
# [2] = test system: HCV replicon GT6; experiment: Cell-based HCV replicon assay, GT6; settings: Hepatitis C virus, GT6, 72 h; replicon RNA level by real-time PCR, 3 days
# Experimental: as §1, §2, §3, §4, §5
# [3] = test system: HCV replicon GT2b_31M; experiment: Cell-based HCV replicon assay, GT2b 31M; settings: Hepatitis C virus, 72 h, read-out: GT2b_31M EC90
# Experimental: as §1, §2, §3, §4, §5
# [4] = test system: HCV replicon GT1b_WT; experiment: Cell-based HCV replicon assay, GT1b WT; settings: Hepatitis C virus, 72 h, read-out: GT1b_WT EC90
# Experimental: as §1, §2, §3, §4, §5
# [5] = test system: HCV replicon GT5; experiment: Cell-based HCV replicon assay, GT5; settings: Hepatitis C virus, GT5, 72 h; replicon RNA level by real-time PCR, 3 days
# Experimental: as §1, §2, §3, §4, §5
# [6] = test system: HCV replicon GT1a_L31V; experiment: Cell-based HCV replicon assay, GT1a L31V; settings: Hepatitis C virus, 72 h, read-out: GT1a_L31V EC90
# Experimental: as §1, §2, §3, §4, §5
# [7] = test system: HCV replicon GT3a_WT; experiment: Cell-based HCV replicon assay, GT3a WT; settings: Hepatitis C virus, 72 h; replicon RNA level by real-time PCR, 3 days
# Experimental: as §1, §2, §3, §4, §5
# [8] = test system: HCV replicon GT2a; experiment: Cell-based HCV replicon assay, GT2a; settings: Hepatitis C virus, 72 h, read-out: GT2a EC90
# Experimental: as §1, §2, §3, §4, §5
# [9] = test system: HCV replicon GT3a_Y93H; experiment: Cell-based HCV replicon assay, GT3a Y93H; settings: Hepatitis C virus, 72 h, read-out: GT3a_Y93H EC90
# Experimental: as §1, §2, §3, §4, §5
# [10] = test system: HCV replicon GT4; experiment: Cell-based HCV replicon assay, GT4; settings: Hepatitis C virus, GT4, 72 h; replicon RNA level by real-time PCR, 3 days
# Experimental: as §1, §2, §3, §4, §5
# [11] = test system: HCV replicon GT1a_Q30R; experiment: Cell-based HCV replicon assay, GT1a Q30R; settings: Hepatitis C virus, 72 h, read-out: GT1a_Q30R EC90
# Experimental: as §1, §2, §3, §4, §5
# [12] = replicon RNA level by real-time PCR, 3 days
compound,measurement,setting,value
COC(=O)NC(C(=O)N1CCC[C@H]1c1ncc(-c2ccc3c(c2)cc2n3[C@H](c3cnc(C4CC4)s3)Oc3cc(-c4cnc([C@@H]5C[Si](C)(C)CN5C(=O)[C@@H](NC(=O)OC)C5CCC(F)(F)CC5)[nH]4)cc(F)c3-2)[nH]1)C(C)C (stereo partly shown) [Compound 9],EC90,[1],0.29 nM
same,EC90,[2],0.0109 nM
same,EC90,[3],4.24 nM
same,EC90,[4],0.00108 nM
same,EC90,[5],0.009 nM
same,EC90,[6],0.026 nM
same,EC90,[7],2.24 nM
same,EC90,[8],0.00243 nM
same,EC90,[9],322 nM
same,EC90,[10],0.00137 nM
same,EC90,[11],0.0247 nM
COC(=O)NC(C(=O)N1CCC[C@H]1c1ncc(-c2ccc3c(c2)cc2n3[C@H](c3cnc(C4CC4)s3)Oc3cc(-c4cnc([C@@H]5C[Si](C)(C)CN5C(=O)[C@@H](NC(=O)OC)[C@@H]5CCOC(C)(C)C5)[nH]4)cc(F)c3-2)[nH]1)C(C)C (stereo partly shown) [Compound 8],EC90,[1],0.271 nM
same,EC90,[2],0.0079 nM
same,EC90,[3],1.12 nM
same,EC90,[5],0.0072 nM
same,EC90,[6],0.0088 nM
same,EC90,[7],0.709 nM
same,EC90,[8],0.00118 nM
same,EC90,[9],133 nM
same,EC90,[10],0.00103 nM
same,EC90,[11],0.0056 nM
CNC(C(=O)N1C[Si](C)(C)C[C@H]1c1ncc(-c2ccc3c(c2)cc2n3[C@H](c3ccc(C4CC4)s3)Oc3cc(-c4cnc([C@@H]5CCCN5C(=O)[C@@H](NC(=O)OC)C(C)C)[nH]4)cc(F)c3-2)[nH]1)c1ccccc1 (stereo partly shown) [Compound 19],EC90,[1],0.219 nM
same,EC90,[2],0.0047 nM
same,EC90,[3],0.092 nM
same,EC90,[5],0.0048 nM
same,EC90,[6],0.0106 nM
same,EC90,[7],0.056 nM
same,EC90,[9],109 nM
same,EC90,[11],0.0053 nM
COC(=O)NC(C(=O)N1C[Si](C)(C)C[C@H]1c1ncc(-c2ccc3c(c2)cc2n3[C@H](c3cnc(C4CC4)s3)Oc3cc(-c4cnc([C@@H]5CCCN5C(=O)[C@@H](NC(=O)OC)C(C)C)[nH]4)cc(F)c3-2)[nH]1)C1CCOCC1 (stereo partly shown) [Compound 2],EC90,[1],0.062 nM
same,EC90,[2],0.0044 nM
same,EC90,[3],0.231 nM
same,EC90,[5],0.0041 nM
same,EC90,[6],0.003 nM
same,EC90,[7],0.17 nM
same,EC90,[9],168 nM
same,EC90,[11],0.0043 nM
COC(=O)N[C@H](C(=O)N1CCC[C@H]1c1ncc(-c2cc(F)c3c(c2)O[C@@H](c2cnc(C4CC4)s2)n2c-3cc3cc(-c4cnc([C@@H]5C[Si](C)(C)CN5C(=O)[C@@H](NC(=O)OC)C(C)C)[nH]4)ccc32)[nH]1)C(C)C [Compound 1],EC90,[1],0.231 nM
same,EC90,[2],0.0059 nM
same,EC90,[3],2.43 nM
same,EC90,[5],0.0056 nM
same,EC90,[6],0.0568 nM
same,EC90,[7],1.77 nM
same,EC90,[8],0.00278 nM
same,EC90,[9],393 nM
same,EC90,[11],0.0193 nM
COC(=O)NC(C(=O)N1CCC[C@H]1c1ncc(-c2ccc3c(c2)cc2n3[C@H](c3cnc(C4CC4)s3)Oc3cc(-c4cnc([C@@H]5C[Si](C)(C)CN5C(=O)[C@H](N)c5ccccc5)[nH]4)cc(F)c3-2)[nH]1)C(C)C (stereo partly shown) [Compound 10],EC90,[1],4.28 nM
same,EC90,[2],0.008 nM
same,EC90,[3],12 nM
same,EC90,[4]; [12],0.00142 nM
same,EC90,[5],0.0139 nM
same,EC90,[6],0.859 nM
same,EC90,[7],5.48 nM
same,EC90,[8]; [12],0.00246 nM
same,EC90,[9],126 nM
same,EC90,[11],0.387 nM
CN[C@@H](C(=O)N1C[Si](C)(C)C[C@H]1c1ncc(-c2cc(F)c3c(c2)O[C@@H](c2cnc(C4CC4)s2)n2c-3cc3cc(-c4cnc([C@@H]5CCCN5C(=O)C(NC(=O)OC)C(C)C)[nH]4)ccc32)[nH]1)c1ccccc1 (stereo partly shown) [Compound 11],EC90,[1],0.933 nM
same,EC90,[2],0.0066 nM
same,EC90,[3],0.705 nM
same,EC90,[4]; [12],0.00154 nM
same,EC90,[5],0.0098 nM
same,EC90,[6],0.0963 nM
same,EC90,[7],0.347 nM
same,EC90,[8]; [12],0.001 nM
same,EC90,[9],74 nM
same,EC90,[11],0.0318 nM
CNC(C(=O)N1C[Si](C)(C)C[C@H]1c1ncc(-c2ccc3c(c2)cc2n3[C@H](c3cnc(C4CC4)s3)Oc3cc(-c4cnc([C@@H]5CCCN5C(=O)[C@@H](NC(=O)OC)C(C)C)[nH]4)cc(F)c3-2)[nH]1)c1ccccc1 (stereo partly shown) [Compound 5],EC90,[1],0.33 nM
same,EC90,[2],0.0088 nM
same,EC90,[3],0.378 nM
same,EC90,[4]; [12],0.0021 nM
same,EC90,[5],0.0086 nM
same,EC90,[6],0.0359 nM
same,EC90,[7],0.257 nM
same,EC90,[9],110 nM
same,EC90,[11],0.0155 nM
COC(=O)N[C@H](C(=O)N1CCC[C@H]1c1ncc(-c2cc(F)c3c(c2)O[C@@H](c2cnc(C4CC4)s2)n2c-3cc3cc(-c4cnc([C@@H]5C[Si](C)(C)CN5C(=O)C(N)c5ccccc5)[nH]4)ccc32)[nH]1)C(C)C (stereo partly shown) [Compound 12],EC90,[1],0.334 nM
same,EC90,[2],0.0863 nM
same,EC90,[3],0.061 nM
same,EC90,[4]; [12],0.00141 nM
same,EC90,[5],0.0144 nM
same,EC90,[6],0.149 nM
same,EC90,[7],0.036 nM
same,EC90,[8]; [12],0.00152 nM
same,EC90,[9],155 nM
same,EC90,[11],0.0776 nM
COC(=O)N[C@H](C(=O)N1CCC[C@H]1c1ncc(-c2cc(F)c3c(c2)O[C@@H](c2ccc(C4CC4)s2)n2c-3cc3cc(-c4cnc([C@@H]5C[Si](C)(C)CN5C(=O)[C@@H](N)c5ccccc5)[nH]4)ccc32)[nH]1)C(C)C [Compound 18],EC90,[1],1.22 nM
same,EC90,[2],0.0084 nM
same,EC90,[3],0.062 nM
same,EC90,[4]; [12],0.00111 nM
same,EC90,[5],0.0068 nM
same,EC90,[6],0.0681 nM
same,EC90,[7],0.027 nM
same,EC90,[9],206 nM
same,EC90,[11],0.0372 nM
